ChEMBL document CHEMBL5150074, “Structure-Based Design of a Dual-Targeted Covalent Inhibitor Against Papain-like and Main Proteases of SARS-CoV-2” (J Med Chem, 2022)

How the values were obtained:
[1] = Binding affinity to SARS-CoV-2 PLpro C111A mutant assessed as dissociation constant by isothermal titration calorimetry assay; set-up: species or system Severe acute respiratory syndrome coronavirus 2
[2] = Binding affinity to SARS-CoV-2 MPro C145A mutant assessed as dissociation constant by isothermal titration calorimetry assay; set-up: species or system Severe acute respiratory syndrome coronavirus 2

Q: Which Kd [1] does the source give for `Cl.O=C1C=C(Nc2ccccc2N2CCNCC2)C2=NS(=O)(=O)c3cccc1c32` here?
A: 2300 nM

Q: And the Kd [2]?
A: 1500 nM
